Source: patent publication US8114850B2, “Antiproliferative activity of G-rich oligonucleotides and method of using same to bind to nucleolin” (Advanced Cancer Therapeutics, LLC, priority 1999, dated 2012)

Key:
breast cancer cells = assay: Summary statements on growth of breast cancer cells / antiproliferative activity; format: cell-based; settings: for antiproliferative activity: cells not given; for modulate the growth of breast cancer cells and/or compete for binding to the G-rich oligonucleotide binding protein (EMSA): and/or statement, FIGS. 6 and 7
Text: (§1) By G-rich oligonucleotide (GRO) it is meant that the oligonucleotides consist of 4-100 nucleotides (preferably 10-30 nucleotides) with DNA, RNA, 2′-O-methyl, phosphorothioate or other chemically similar backbones. Their sequences contain one or more GGT motifs. The oligonucleotides have antiproliferative activity against cells and bind to GRO binding protein and/or nucleolin.

[1] = biological target: T1, G-rich oligonucleotide binding protein / nucleolin (Homo sapiens, UniProt P19338); assay: Protein binding, summary statements (EMSA); settings: summary statement
T1 construct: endogenous in cells; MDA-MB-231)
Text: as §1
Additionally, the present invention provides a method for selecting oligonucleotides that bind to nucleolin. The method utilizes an electrophoretic mobility shift assay (EMSA), as described below, to screen for oligonucleotides that bind strongly to nucleolin and which, therefore, would be expected, according to the present invention, to have anti-proliferative activity. Oligonucleotides to be screened as potential antiproliferative agents are labeled and then incubated with nuclear extracts in the absence or presence of unlabeled competitor oligonucleotide and are allowed to react. The reaction mixtures are then electrophoresed and mobility shifts and/or bond intensity can be used to identify those oligonucleotides which have bound to the specific protein.
Alternatively, unlabeled compounds to be screened are incubated with nuclear extracts in the presence of labeled oligonucleotide (for example 5′-TTAGGGTTAGGGTTAGGG TTAGGG) (SEQ ID NO: 20) and binding is assessed by a decrease in the intensity of the shifted band, as in FIG. 6B.

[2] = tested on: MDA-MB-231 breast cancer cells; assay: MTT cell growth assay, MDA-MB-231 cells; format: cell-based, human; settings: for antiproliferative activity, MDA-MB-231: single 10 uM dose, FIG. 7A
Protocol: Cells were plated at low density ([…] cells per well, depending on cell line) in the appropriate serum-supplemented medium in 96-well plates (one plate per MTT assay time point) and grown under standard conditions of cell culture. The following day (day 1) oligonucleotide, or water as control, was added to the culture medium to give a final concentration of 15 uM. Further oligonucleotide, equivalent to half the initial dose, was added to the culture medium on days two, three and four. Cells were assayed using the MTT assay (Morgan (1998) Methods. Mol. Biol. 79, 179-183) on days one, three, five, seven and nine after plating. The culture medium was not changed throughout the duration of the experiment (which was the time required for untreated cells to grow to confluence). Experiments were performed in triplicate and bars represent the standard error of the data. For the experiment shown in FIG. 7A, MDA-MB-231 breast cancer cells (5×10^2 cells per well) were plated in a 96-well plate. After twenty-four hours, a single dose of oligonucleotide, or equal volume of PBS as a control, was added to the culture medium to a final concentration of 10 uM. Viable cells were assessed seven days after plating using the MTT assay. For the experiment using 3′-unmodified oligonucleotides (FIG. 7D), serum-supplemented medium was replaced by serum-free medium containing oligonucleotide (or serum-free medium alone in control wells). After incubation at 37° C. for four hours, fetal calf serum (Life Technologies, Inc.) was added to the medium to give 10% v/v.

[3] = biological target: T2, TEL-binding protein (GRO-binding protein/nucleolin, MDA-MB-231 nuclear extracts) (Homo sapiens, UniProt P19338); assay: Competitive EMSA, labeled TEL and MDA-MB-231 nuclear extracts; settings: for competition with TEL for binding to the nuclear protein: unlabeled competitor, 10-fold molar excess, FIG. 7B
T2 construct: Nuclear and cytoplasmic extracts from MDA-MB-231 cells were prepared using the protocol described in F. M. Ausubel et al; endogenous in cells; host or cells: MDA-MB-231 nuclear extract, prepared in house

[4] = biological target: T3, GRO-binding protein/nucleolin (HeLa nuclear extracts) (Homo sapiens, UniProt P19338); assay: UV cross-linking of oligonucleotides to HeLa nuclear extracts; settings: labeled oligonucleotide with HeLa nuclear extracts; FIG. 6C
T3 construct: HeLa nuclear extracts used in EMSAs were purchased from Promega Inc. (bandshift grade); host or cells: HeLa nuclear extract (bandshift grade), purchased
Protocol: For the UV crosslinking experiments, samples were incubated as described above (EMSA). They were then placed on ice and irradiated at 5 cm from the source using the “autocross link” function of a Stratagene UV Stratalinker. Following irradiation, samples were electrophoresed under denaturing conditions on a 8% polyacrylamide-SDS gel using a standard Tris glycine buffer and visualized by autoradiography.
To determine the approximate molecular weight of the protein involved in complex A, and to confirm that competition for this complex results from direct binding of the protein to oligonucleotides, a UV cross-linking study was conducted. 5′-Labeled oligonucleotides and HeLa nuclear extracts were incubated alone or in the presence of unlabeled competitor oligonucleotides.
The samples were then irradiated with UV light resulting in cross-link formation between protein residues and thymidines in the oligonucleotide. The protein was thus radiolabeled and could be detected on a SDS-polyacrylamide gel.

[5] = Detection of G-quartets by UV thermal denaturation/renaturation; format: physicochemical; settings: absorbance at 295 nm; for G-quartet formation (UV annealing curve): FIG. 4
Protocol: Oligonucleotides were resuspended in Tm buffer (20 mM Tris HCl, pH 8.0, 140 mM KCl, 2.5 mM MgCl2) at a concentration such that A260=0.6 (molar concentrations ranged from […]). Samples were annealed by boiling for five minutes and allowing to cool slowly to room temperature and overnight incubation at 4° C. Thermal denaturation/renaturation experiments were carried out using an Amersham Pharmacia Biotech Ultrospec 2000 instrument equipped with a Peltier effect heated cuvette holder and temperature controller (Amersham Pharmacia Biotech). Absorbance at 295 nm was monitored over a temperature range of 25-95 or 20-90° C. at a heating/cooling rate of 0.5° C./min. To investigate the formation of G-quartet structures by the G-rich oligonucleotides, a U.V. melting technique described by […] et al. (1998) FEBS Lett. 435, 74-78 was used. This method relies on the fact that dissociation of G-quartets leads to a decrease in absorbance at 295 nm and is reported to give a more reliable indication of intramolecular G-quartet formation than measurement at 260 nm.

[6] = biological target: T4, 106 kDa nuclear protein (p106, GRO-binding protein/nucleolin) (Homo sapiens, UniProt P19338); assay: Southwestern blot of HeLa nuclear extracts; settings: 32P-labeled oligonucleotide, 4° C.; FIG. 6D
T4 construct: HeLa nuclear extracts used in EMSAs were purchased from Promega Inc. (bandshift grade); host or cells: HeLa nuclear extract (bandshift grade), purchased
Protocol: Nuclear extracts were electrophoresed on a 8% polyacrylamide-SDS gel and transferred to polyvinylidene difluoride (PVDF) membrane by electroblotting using a Tris glycine/methanol (10% v/v) buffer. Immobilized proteins were denatured and renatured by washing for thirty minutes at 4° C. with 6 M guanidine. HCl followed by washes in 1:1, 1:2 and 1:4 dilutions of 6M guanidine in HEPES binding buffer (25 mM HEPES pH 7.9, 4 mM KCl, 3 mM MgCl2). The membrane was blocked by washing for one hour in a 5% solution of non-fat dried milk (NDM) in binding buffer.
Hybridization of the labeled oligonucleotide (1-4×10^6 cpm) took place for two hours at 4° C. in HEPES binding buffer supplemented with 0.25% NDM, 0.05% Nonidet P […] salmon sperm DNA and […] of an unrelated, mixed sequence 35-mer oligonucleotide (5′-[…] CTTCCTTCCTCTCCA-3′SEQ ID No: 19). Membranes were washed in binding buffer and visualized by autoradiography.
The molecular weight of the nuclear protein was more accurately determined by Southwestern blotting. HeLa nuclear extracts were electrophoresed on an 8% polyacrylamide-SDS gel and transferred to a PVDF membrane. The membrane was blocked and cut into strips. Each strip was incubated at 4° C. with a 32P-labeled G-rich oligonucleotide in the presence of unrelated unlabeled double stranded and single stranded DNA to block non-specific binding.

T1 sequence (P19338 whole entry): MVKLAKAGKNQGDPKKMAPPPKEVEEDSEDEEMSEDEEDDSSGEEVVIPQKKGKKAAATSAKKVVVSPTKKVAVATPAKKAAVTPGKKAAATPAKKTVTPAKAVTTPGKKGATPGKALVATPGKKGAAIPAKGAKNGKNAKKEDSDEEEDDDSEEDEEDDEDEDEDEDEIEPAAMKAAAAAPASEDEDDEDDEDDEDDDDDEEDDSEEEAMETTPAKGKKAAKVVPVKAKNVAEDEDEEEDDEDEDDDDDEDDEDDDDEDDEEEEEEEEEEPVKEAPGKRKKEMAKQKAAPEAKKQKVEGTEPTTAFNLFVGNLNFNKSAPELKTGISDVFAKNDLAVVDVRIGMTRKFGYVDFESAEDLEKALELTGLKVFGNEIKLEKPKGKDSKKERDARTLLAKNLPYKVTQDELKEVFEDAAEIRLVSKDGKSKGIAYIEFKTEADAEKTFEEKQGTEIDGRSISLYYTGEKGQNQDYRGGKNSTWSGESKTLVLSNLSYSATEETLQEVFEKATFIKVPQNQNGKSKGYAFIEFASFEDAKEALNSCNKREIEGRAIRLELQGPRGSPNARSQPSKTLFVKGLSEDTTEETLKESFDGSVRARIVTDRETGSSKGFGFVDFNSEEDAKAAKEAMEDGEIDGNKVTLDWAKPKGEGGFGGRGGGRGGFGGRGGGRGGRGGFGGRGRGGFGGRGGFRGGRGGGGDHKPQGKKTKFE
T2 sequence (P19338 whole entry): as above
T3 sequence (P19338 whole entry): as above
T4 sequence (P19338 whole entry): as above

Substance | antiproliferative activity (breast cancer cells) | protein binding [1] | antiproliferative activity, MDA-MB-231 [2] | modulate the growth of breast cancer cells and/or compete for binding to the G-rich oligonucleotide binding protein (EMSA) (breast cancer cells) | other results
5′-GGTGGTGGTGGTTGT GGTGGTGGTGGTTT-3′ (GGTGGTGGTGGTTGTGGTGGTGGTGGTTT; DNA, backbone not given here; further chemistry not fully specified) [GR029-6] | demonstrated antiproliferative activity | protein binding | – | – | –
5′-GGTTGGGGTGGGTGGGGTG GGTGGG-3′ (GGTTGGGGTGGGTGGGGTGGGTGGG; DNA, backbone not given here; further chemistry not fully specified) [GR025A] | – | – | moderate antiproliferative activity | – | competition with TEL for binding to the nuclear protein [3]: able to compete
5′-GTTGTTTGGGGTGG-3′ (DNA, backbone not given here; further chemistry not fully specified) [GRO14A] | – | – | moderate antiproliferative activity | – | competition with TEL for binding to the nuclear protein [3]: able to compete
5′-TGGTGGTGGTGGT-3′ (DNA, backbone not given here; further chemistry not fully specified) [GR029-13] | – | – | – | have been shown to modulate the growth of breast cancer cells and/or to compete for binding | –
5′-TTAGGGTTAGGGTTAGGGTTAGGG [TEL, reference compound] | – | – | – | – | growth of MDA-MB-231 cells, unmodified oligonucleotides ([2]; 10 uM in serum-free medium 4 h, then 10% fetal calf serum, day 7, FIG. 7D): modulated the growth of cells; UV cross-linked protein complex (approximately 100 kDa) [4]: crosslinked to a protein; competition for protein binding in competitive EMSA ([3]; 10 nM unlabeled oligonucleotide, […]): competed strongly; G-quartet formation (UV annealing curve) [5]: clear transition; melting temperature of G-quartet transition ([5]; Tm buffer pH 8.0, 140 mM KCl, 0.5° C./min): 66 °C
5′-TTTGGTGG TGGTGGTTTTGGTGGTGGTGG-3′ (TTTGGTGGTGGTGGTTTTGGTGGTGGTGG; aptamer; DNA, backbone not given here; further chemistry not fully specified) [GR029-2] | demonstrated antiproliferative activity | protein binding | – | have been shown to modulate the growth of breast cancer cells and/or to compete for binding | –
5′-TTTGGTGGTGGT GGTGTGGTGGTGGTGG-3′ (TTTGGTGGTGGTGGTGTGGTGGTGGTGG; DNA, backbone not given here; further chemistry not fully specified) [GR028B] | demonstrated antiproliferative activity | protein binding | – | – | –
5′-TTTGGTGGTGGTGGTGGTGGTGGTGGTGG-3′ (aptamer; DNA, backbone not given here; further chemistry not fully specified) [GR029-3] | demonstrated antiproliferative activity | protein binding | – | have been shown to modulate the growth of breast cancer cells and/or to compete for binding | –
5′-TTTGGTGGTGGTGGTTGTGG TGGTGGTG-3′ (TTTGGTGGTGGTGGTTGTGGTGGTGGTG; DNA, backbone not given here; further chemistry not fully specified) [GR028A] | – | – | moderate antiproliferative activity | – | competition with TEL for binding to the nuclear protein [3]: able to compete
5′-TTTGGTGGTGGTGGTTTGGGTGGTGG TGG-3′ (TTTGGTGGTGGTGGTTTGGGTGGTGGTGG; aptamer; DNA, backbone not given here; further chemistry not fully specified) [GR029-5] | demonstrated antiproliferative activity | protein binding | – | have been shown to modulate the growth of breast cancer cells and/or to compete for binding | –
GRO15B: inactive G-rich oligonucleotide, SEQ ID NO: 22 (TTGGGGGGGGTGGGT; DNA, backbone not given here; further chemistry not fully specified) | – | – | inactive | – | G-quartet formation (UV annealing curve) [5]: no transition characteristic of intramolecular G-quartet formation; hybridization to protein band at 106 kDa (Southwestern blot) [6]: hybridized only weakly
heparin [reference compound] | – | – | – | – | growth of MDA-MB-231 cells, heparin ([2]; 20 units/ml (approximately 0.12 mg/ml), FIG. 7C): no effect on cell growth; competition for protein binding in competitive EMSA, heparin ([3]; 0.02 units/ml (approximately 0.12 ug/ml)): No competition
